Measured values taken from US10450322B2, “Low molecular weight derivatives of carboxamide halogenated porphyrins, namely chlorins and bacteriochlorins, and their applications thereof” (LUZITIN, S.A., priority 2015, dated 2019).

Experiments:
Assay type in all cases: physicochemical
[1] = Optical absorption (UV-Vis-NIR) in ethanol
Experimental: The UV-Vis-NIR optical absorption was recorded with an Agilent Cary5000 UV-Vis-NIR Spectrophotometer in the determination of the molar absorption coefficient and with Shimadzu UV-2100 spectrometer in routine measurements. The absorption spectra were recorded in the wavelengths from 300 nm up to 800 nm.
This is indicative of negligible aggregation between the molecules, which exist mostly as monomers at these concentrations in the solvents studied. Table 1 presents the infrared molar absorption coefficient (εmax) and wavelength maximum in ethanol of a typical carboxamide halogenated bacteriochlorin derivative of Formula (I). The same table also presents triplet lifetimes (τT) in air and N2 saturated solutions, fluorescence lifetime (τS), the quantum yields of fluorescence (ΦF), triplet state formation (ΦT), and singlet oxygen generation (ΦΔ) in ethanol, and photodegradation quantum yield (Φpd) in methanol:PBS (3:2). Triplet decays were clearly mono-exponential and in air-saturated ethanol the triplet lifetimes were in the range of 200 to 300 nanoseconds. Such values are consistent with diffusion limited energy transfer from the triplet state of the photosensitizer to molecular oxygen through a charge-transfer interaction (8). The absorption intensity of the test compounds in the photobleaching studies followed a mono-exponential decrease as a function of the illumination time.

[2] = Fluorescence emission, quantum yield and lifetime; details: in ethanol
Experimental: The fluorescence emission spectra were recorded in the homemade setup composed of a Horiba-Jobin Fluoromax 4, used to excite the samples, connected to a sample holder through an optical fiber. In the sample holder, perpendicular to excitation fiber, an optical fiber is connected to drive the emission light to the spectrophotometer detector Avantes model SensLine, provided with AvaSoft 7.7.2. The excitation slit was set at 2 mm and the integration time was 3 s, with average number of 3. The spectra were collected from 200 nm up to 1100 nm using standard cuvettes of 1 cm of optical path. Fluorescence quantum yields (ΦF) were obtained comparing the integrated fluorescence of the samples with that of a reference fluorimetric compound with known ΦF.
The fluorescence lifetime was determined in homemade equipment composed of a LED that produces a light pulse for exciting the sample, a sample holder, detector and optics. […]
This is indicative of negligible aggregation between the molecules, which exist mostly as monomers at these concentrations in the solvents studied. […] The same table also presents triplet lifetimes (τT) in air and N2 saturated solutions, fluorescence lifetime (τS), the quantum yields of fluorescence (ΦF), triplet state formation (ΦT), and singlet oxygen generation (ΦΔ) in ethanol, and photodegradation quantum yield (Φpd) in methanol:PBS (3:2). […]

[3] = n-Octanol:PBS partition ratio (shake-flask)
Description: a modification of the shake-flask method was employed to determine the equilibrium concentrations of the photosensitizer in n-octanol and in phosphate-buffered saline (PBS) mixed in equal volumes, using the typical fluorescence band of the same photosensitizer and calibration curves.
This example describes the evaluation of in vitro phototoxicity of a carboxamide bacteriochlorin with formula IX after light irradiation, and their potential for PDT application in the treatment of acne vulgaris. The phototoxicity was measured according to the description in the Materials and Methods section. The n-octanol:PBS partition ratio of IX is POW=2.9±0.5. An adequate formulation for this carboxamide bacteriochlorin is PEG400:DMSO (55:45). The phototoxicity of the test compound is proportional to the inhibition of P. acnes viability relative to the non-treated control, and is represented in FIG. 5 in the form of CFU reduction as a function of photosensitizer concentration for the light doses of 4 and 10 J/cm^2.

For `CNC(=O)c1c2nc(c(-c3c(F)cccc3F)c3ccc(cc4nc(c(-c5c(F)cccc5F)c5ccc1[nH]5)CC4)[nH]3)CC2` [formula IX, 5-methylcarboxamide-10,20-bis-(2,6-difluorophenyl)bacteriochlorin], the “λ (wavelength of maximum infrared absorption)” value [1] was 734 nm, the “ε (λ) molar absorption coefficient” value ([1]; at 734 nm) was 69 10^3 M^−1 cm^−1 and the “ΦF fluorescence quantum yield” value [2] was 0.20. For the same compound, the τS fluorescence lifetime [2] was 3.2 ns, the “Log POW” value [3] was 2.9 and the “n-octanol:PBS partition ratio POW” value [3] was 2.9±0.5.
